# Active and inactive are the calls of the source.
# Columns and labels:
# [1] = target: T1, DNA repair protein RAD52 homolog (Homo sapiens, UniProt P43351); type: functional, biochemical
# T1 sequence (P43351 whole entry): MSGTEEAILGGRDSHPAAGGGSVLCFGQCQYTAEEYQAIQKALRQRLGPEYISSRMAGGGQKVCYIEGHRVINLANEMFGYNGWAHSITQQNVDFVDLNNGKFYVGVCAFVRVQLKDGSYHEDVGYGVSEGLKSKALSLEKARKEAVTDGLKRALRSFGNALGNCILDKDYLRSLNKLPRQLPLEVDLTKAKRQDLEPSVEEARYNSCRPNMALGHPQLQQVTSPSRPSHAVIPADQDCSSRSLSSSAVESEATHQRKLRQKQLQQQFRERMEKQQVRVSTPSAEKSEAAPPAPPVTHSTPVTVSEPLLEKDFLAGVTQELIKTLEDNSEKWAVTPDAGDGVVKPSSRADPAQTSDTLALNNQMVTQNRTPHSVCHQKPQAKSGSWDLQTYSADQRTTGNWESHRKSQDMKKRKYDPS
# [2] = target: 5-hydroxytryptamine receptor 5A (Homo sapiens, UniProt P47898); assay: Counterscreen for agonists of OPRM1-OPRD1 heterodimerization: luminescence-based cell-based high throughput dose response assay to identify agonists of 5-hydroxytryptamine (serotonin) 5A receptor (HTR5A). [Related pubchem assays (depositor defined):AID504326, AID504355, AID504692, AID504904, AID504905]; type: functional
# Mu-type opioid receptor = Mu-type opioid receptor (Homo sapiens, UniProt P35372); assay: (§1) Counterscreen for agonists of heterodimerization of the mu 1 (OPRM1) and delta 1 (OPRD1) opioid receptors: Luminescence-based cell-based high throughput dose response assay to identify agonists of OPRM1 homodimerization.; type: functional
# [3] = target: T2, Short transient receptor potential channel 4 (Mus musculus, UniProt Q9QUQ5); assay: mouse TRPC4 channel activators, dose response, cell-based, HEK293 TRPC4/mu-opioid, Fluo-4 calcium (AID 434937); type: functional
# T2 sequence (Q9QUQ5 whole entry): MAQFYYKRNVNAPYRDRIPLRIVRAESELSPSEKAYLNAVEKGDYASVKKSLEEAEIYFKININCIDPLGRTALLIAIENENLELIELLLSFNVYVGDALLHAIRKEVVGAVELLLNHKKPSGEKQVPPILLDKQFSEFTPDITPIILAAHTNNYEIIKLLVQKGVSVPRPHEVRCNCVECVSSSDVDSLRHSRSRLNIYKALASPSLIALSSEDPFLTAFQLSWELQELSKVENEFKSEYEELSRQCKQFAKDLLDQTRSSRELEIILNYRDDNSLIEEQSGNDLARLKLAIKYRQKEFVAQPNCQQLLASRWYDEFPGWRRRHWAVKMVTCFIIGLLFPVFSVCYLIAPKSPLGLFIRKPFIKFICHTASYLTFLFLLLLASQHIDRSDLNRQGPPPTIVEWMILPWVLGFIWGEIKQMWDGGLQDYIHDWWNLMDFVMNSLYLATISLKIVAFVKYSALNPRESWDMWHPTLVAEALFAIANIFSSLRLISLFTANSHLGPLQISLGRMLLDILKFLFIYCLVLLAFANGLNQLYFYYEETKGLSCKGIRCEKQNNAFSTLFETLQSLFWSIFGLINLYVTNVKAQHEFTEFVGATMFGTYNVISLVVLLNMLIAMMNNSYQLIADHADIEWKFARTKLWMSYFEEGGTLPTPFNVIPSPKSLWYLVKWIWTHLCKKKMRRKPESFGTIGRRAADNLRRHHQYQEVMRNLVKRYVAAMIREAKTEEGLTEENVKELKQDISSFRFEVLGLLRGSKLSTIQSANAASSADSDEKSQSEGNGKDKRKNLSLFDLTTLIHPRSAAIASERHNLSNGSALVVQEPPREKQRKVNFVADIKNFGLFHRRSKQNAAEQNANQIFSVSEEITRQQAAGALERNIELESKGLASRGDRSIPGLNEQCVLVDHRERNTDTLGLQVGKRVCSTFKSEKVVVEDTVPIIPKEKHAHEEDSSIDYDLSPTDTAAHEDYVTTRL
# Aminopeptidase N = target: T3, Aminopeptidase N (Plasmodium falciparum FcB1/Columbia, UniProt O96935); assay: P. falciparum M1AAP inhibitors, biochemical, fluorogenic H-Leu-NHMec substrate, 1536-well (AID 1445); design: species or system Plasmodium falciparum 3D7, 3D7
# T3 sequence (O96935 whole entry): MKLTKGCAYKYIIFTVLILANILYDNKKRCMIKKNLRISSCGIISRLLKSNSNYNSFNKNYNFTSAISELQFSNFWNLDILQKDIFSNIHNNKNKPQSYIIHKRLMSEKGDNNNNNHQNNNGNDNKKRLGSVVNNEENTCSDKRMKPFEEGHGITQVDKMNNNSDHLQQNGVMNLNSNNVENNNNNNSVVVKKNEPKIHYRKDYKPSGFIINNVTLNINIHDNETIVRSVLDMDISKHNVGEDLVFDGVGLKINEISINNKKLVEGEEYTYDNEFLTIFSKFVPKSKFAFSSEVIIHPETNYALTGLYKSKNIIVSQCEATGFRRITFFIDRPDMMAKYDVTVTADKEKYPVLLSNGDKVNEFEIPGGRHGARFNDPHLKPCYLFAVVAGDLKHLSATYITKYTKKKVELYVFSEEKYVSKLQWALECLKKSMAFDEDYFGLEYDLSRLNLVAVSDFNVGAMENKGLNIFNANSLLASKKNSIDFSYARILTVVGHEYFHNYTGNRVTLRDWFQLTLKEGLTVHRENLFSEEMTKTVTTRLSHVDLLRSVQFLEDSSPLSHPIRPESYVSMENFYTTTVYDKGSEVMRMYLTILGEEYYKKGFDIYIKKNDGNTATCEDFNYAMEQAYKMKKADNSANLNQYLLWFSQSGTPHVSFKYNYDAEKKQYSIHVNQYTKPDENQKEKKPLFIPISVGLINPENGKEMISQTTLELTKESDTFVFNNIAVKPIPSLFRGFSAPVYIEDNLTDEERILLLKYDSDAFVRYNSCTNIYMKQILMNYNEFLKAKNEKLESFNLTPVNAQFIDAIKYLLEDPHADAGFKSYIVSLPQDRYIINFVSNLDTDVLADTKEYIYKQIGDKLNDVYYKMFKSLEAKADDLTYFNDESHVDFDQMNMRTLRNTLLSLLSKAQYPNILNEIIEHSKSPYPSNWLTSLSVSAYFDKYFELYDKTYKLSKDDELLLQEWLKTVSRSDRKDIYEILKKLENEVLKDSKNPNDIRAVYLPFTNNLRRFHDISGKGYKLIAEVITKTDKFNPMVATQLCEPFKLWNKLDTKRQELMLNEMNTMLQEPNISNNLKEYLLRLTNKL
# Galanin receptor type 2 = Galanin receptor type 2 (Homo sapiens, UniProt O43603); assay: Dose Response cell-based high-throughput screening assay to identify agonists of galanin receptor 2 (GALR2). [Related pubchem assays: 864 ]; type: functional
# [4] = target: Delta-type opioid receptor (Homo sapiens, UniProt P41143); assay: as §1, with “of OPRD1” for “of OPRM1”, “homodimerization. [Related pubchem assays (depositor defined):AID504326, AID504355, AID504692, AID504904, AID504905]” for “homodimerization.”; type: functional
# Vero [5] = assay: cells; type: functional; details: Chlorocebus sabaeus
# INS1 = assay: beta cell apoptosis inhibitors, cytokine rescue, dose response, luminescence, retest (AID 449756); type: functional, cell-based; details: Rattus norvegicus;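 note: cell death triggered by IL-1 beta plus TNF-alpha plus IFN-gamma mixture; protective hits raise ATP signal compared with cytokine alone wells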
# HEK293 = assay: inhibitors of LMP1-driven NF-kB reporter, dose response, cell-based, HEK293, luciferase, cherry-pick (AID 588343); type: functional; details: Homo sapiens
# [6] = growth suppression of PTEN-null colon cells, dose response, cell-based, HCT116 PTEN knockout (AID 1047); type: functional;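 note: HCT116 colon tumor cells with PTEN knocked out; cells exposed to compound for 60 hours before readout; potency for loss of cell viability measured by luminescence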
# Paired box protein Pax-8 = Paired box protein Pax-8 (Homo sapiens, UniProt Q06710); assay: inhibitors of PAX8-driven TPO luciferase reporter, dose response, RMG-I cells, cherry-pick (AID 687027); type: functional, cell-based;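 note: luciferase reporter driven by Pax8 target thyroperoxidase promoter measured by SteadyGlo luminescence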
# [7] = inhibitors of intracellular T. cruzi replication, confirmation, NIH3T3 host cells, beta-gal luminescence (AID 2044); type: functional, cell-based;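 note: intracellular parasites grown in NIH/3T3 mouse fibroblasts as host cells; luminescent beta-galactosidase reporter signal from transgenic T. cruzi replicating inside host cells; inhibitors lower the luminescence signal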
# Vero [8] = assay: host cell cytotoxicity of antiviral hits, dose response, cytotoxicity control for West Nile virus antiviral project, secondary assay (AID 1650); type: functional; details: Chlorocebus sabaeus
# [9] = non-specific cell cytotoxicity, dose response, cytotoxicity control for PAX8 inhibitor project, plate reader, dry powder samples (AID 743021); type: functional, cell-based
# [10] = cytotoxicity toward NIH3T3 fibroblasts, dose response, counter-screen, cell-based, ATP luminescence, mouse fibroblasts (AID 2010); type: functional;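 note: cells exposed to compound for about 90 hours before reading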
# [11] = growth suppression of beta-catenin-knockout colon cells, dose response, cell-based, HCT116, human colon tumor (AID 1045); type: functional;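 note: HCT116 colon tumor cells with beta catenin knocked out; cells exposed to compound for 60 hours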
# [12] = target: Protein-tyrosine kinase 2-beta (Homo sapiens, UniProt Q14289);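 note: potency of inhibitors of PYK2 kinase phosphorylation of poly-GT substrate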
# Chain of Protein-tyrosine kinase 2-beta (Q14289 whole entry): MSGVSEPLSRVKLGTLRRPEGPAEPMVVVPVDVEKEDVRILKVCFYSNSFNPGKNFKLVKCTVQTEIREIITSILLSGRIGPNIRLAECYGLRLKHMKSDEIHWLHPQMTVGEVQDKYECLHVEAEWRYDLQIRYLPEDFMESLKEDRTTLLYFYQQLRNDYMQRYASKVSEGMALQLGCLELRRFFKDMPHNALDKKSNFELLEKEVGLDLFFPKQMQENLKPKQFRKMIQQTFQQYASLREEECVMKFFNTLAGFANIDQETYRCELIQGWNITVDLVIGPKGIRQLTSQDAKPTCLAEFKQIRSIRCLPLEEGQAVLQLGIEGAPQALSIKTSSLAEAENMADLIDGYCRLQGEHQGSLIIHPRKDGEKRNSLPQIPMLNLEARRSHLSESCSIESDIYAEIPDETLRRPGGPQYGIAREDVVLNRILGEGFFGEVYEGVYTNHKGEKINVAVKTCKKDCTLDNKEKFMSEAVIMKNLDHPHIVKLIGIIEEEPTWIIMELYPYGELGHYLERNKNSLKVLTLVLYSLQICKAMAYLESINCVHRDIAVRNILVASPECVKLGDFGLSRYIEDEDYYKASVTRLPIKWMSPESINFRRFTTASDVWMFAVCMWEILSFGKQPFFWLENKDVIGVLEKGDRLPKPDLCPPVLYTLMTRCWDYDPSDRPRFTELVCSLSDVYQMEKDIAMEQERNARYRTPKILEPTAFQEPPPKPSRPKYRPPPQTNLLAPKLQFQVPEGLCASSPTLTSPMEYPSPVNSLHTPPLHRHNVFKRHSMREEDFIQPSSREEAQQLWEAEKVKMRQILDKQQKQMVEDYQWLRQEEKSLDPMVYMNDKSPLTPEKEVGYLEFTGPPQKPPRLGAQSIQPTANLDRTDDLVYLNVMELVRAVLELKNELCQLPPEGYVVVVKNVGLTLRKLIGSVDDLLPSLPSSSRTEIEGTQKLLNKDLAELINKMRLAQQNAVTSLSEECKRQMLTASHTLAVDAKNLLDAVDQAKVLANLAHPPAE
# Chain of Galanin receptor type 2 (O43603 whole entry): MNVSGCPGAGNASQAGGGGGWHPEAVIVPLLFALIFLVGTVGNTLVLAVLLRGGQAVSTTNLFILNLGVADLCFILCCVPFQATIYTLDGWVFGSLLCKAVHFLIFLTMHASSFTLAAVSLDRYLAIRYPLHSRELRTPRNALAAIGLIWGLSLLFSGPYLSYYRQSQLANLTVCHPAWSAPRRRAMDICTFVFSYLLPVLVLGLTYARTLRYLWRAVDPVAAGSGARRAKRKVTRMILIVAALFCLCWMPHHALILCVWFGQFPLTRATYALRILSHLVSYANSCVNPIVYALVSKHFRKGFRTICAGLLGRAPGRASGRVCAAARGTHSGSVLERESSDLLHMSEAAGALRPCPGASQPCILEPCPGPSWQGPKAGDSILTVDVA
# Chain of Mu-type opioid receptor (P35372 whole entry): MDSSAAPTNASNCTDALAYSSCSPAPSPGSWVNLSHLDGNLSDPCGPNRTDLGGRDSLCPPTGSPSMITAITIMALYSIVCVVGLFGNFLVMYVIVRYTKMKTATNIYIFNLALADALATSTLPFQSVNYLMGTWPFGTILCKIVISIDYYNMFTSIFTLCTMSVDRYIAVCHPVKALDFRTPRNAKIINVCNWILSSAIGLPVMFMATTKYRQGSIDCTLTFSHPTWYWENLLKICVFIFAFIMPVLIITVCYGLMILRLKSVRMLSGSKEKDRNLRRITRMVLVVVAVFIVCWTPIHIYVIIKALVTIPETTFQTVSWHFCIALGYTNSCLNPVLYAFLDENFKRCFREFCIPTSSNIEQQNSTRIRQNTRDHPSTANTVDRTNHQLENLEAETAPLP
# Chain of Paired box protein Pax-8 (Q06710 whole entry): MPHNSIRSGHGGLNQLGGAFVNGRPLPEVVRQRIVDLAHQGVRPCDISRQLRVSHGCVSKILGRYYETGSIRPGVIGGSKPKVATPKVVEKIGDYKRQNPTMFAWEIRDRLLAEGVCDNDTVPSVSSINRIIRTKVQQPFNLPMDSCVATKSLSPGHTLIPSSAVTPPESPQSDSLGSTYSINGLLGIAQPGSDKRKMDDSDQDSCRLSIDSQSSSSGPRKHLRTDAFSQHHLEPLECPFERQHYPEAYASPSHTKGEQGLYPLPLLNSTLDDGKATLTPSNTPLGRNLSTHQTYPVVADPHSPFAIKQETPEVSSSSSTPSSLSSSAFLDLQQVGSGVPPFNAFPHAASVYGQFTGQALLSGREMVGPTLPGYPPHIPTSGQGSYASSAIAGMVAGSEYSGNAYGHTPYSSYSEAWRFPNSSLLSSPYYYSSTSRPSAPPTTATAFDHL
# Chain of Delta-type opioid receptor (P41143 whole entry): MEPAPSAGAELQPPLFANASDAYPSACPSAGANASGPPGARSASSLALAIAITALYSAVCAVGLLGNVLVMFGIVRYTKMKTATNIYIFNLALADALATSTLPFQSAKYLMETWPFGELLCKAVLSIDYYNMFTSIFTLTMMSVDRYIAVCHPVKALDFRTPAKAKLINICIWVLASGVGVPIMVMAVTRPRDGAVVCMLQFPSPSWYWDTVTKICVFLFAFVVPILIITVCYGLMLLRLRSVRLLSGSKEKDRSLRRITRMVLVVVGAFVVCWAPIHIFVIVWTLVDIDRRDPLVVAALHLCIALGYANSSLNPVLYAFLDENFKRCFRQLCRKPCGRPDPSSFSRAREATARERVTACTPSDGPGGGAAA
# Chain of 5-hydroxytryptamine receptor 5A (P47898 whole entry): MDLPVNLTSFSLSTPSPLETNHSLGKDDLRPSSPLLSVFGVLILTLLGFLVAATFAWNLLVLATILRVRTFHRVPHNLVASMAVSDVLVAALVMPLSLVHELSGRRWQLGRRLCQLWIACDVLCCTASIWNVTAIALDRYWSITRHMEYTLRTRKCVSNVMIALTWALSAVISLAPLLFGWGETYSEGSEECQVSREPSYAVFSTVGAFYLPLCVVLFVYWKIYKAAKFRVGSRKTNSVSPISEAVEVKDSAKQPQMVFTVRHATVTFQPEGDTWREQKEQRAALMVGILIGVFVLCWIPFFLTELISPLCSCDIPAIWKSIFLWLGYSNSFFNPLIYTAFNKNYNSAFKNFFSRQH
compound,measurement,setting,value
COc1cc2c3cc1Oc1cc(ccc1O)C[C@@H]1c4c(cc(OC)c(O)c4Oc4ccc(cc4)C[C@H]3N(C)CC2)CCN1C,AC50,[1],35.2 µM (active)
same,EC50,[2],79.2 µM (inactive)
same,EC50,Mu-type opioid receptor,> 92.4 µM (inactive)
same,EC50,[3],1.33 µM (active)
same,IC50,Aminopeptidase N,15.2 µM (active)
same,EC50,Galanin receptor type 2,> 55.7 µM (not active)
same,EC50,[4],44.2 µM (inactive)
same,CC50,Vero [5],24.6 µM (active)
CCN(CC)S(=O)(=O)c1cc([N+](=O)[O-])ccc1NNC(=O)Nc1ccc(Cl)c(Cl)c1,AC50,INS1,6.79 µM (active)
same,AC50,HEK293,22.9 µM (active)
same,EC50,[6],8.3 µM (active)
same,AC50,Paired box protein Pax-8,8.91 µM (active)
same,EC50,[7],2.03 µM (active)
same,CC50,Vero [8],14.3 µM (active)
same,AC50,[9],3.73 µM (active)
same,EC50,[10],> 60 µM (not active)
same,EC50,[11],7.99 µM (active)
Cc1n[nH]c(NC=C2C(=O)CC(C)(C)CC2=O)c1-c1ccccc1,IC50,[12],21 µM (not active)
